Laboratory results reported in article PMC6877352, “Modifying the Siderophore Triacetylfusarinine C for Molecular Imaging of Fungal Infection” (Molecular imaging and biology, 2019).

Tests used:
[1] = tested on: A. terreus wildtype strain; assay: In vitro uptake assay in A. terreus (lacks the MirB transporter); assay type: cell-based, Aspergillus terreus
Experimental: To confirm the specificity of uptake of TAFC derivatives by A. fumigatus via the MirB transporter, A. terreus, which lacks the MirB transporter, was used for in vitro uptake assay. A. terreus was grown in either iron-deficient or iron-sufficient cultures. Uptake studies were performed as described for A. fumigatus and expressed as % uptake of total activity added.

[2] = tested on: A. fumigatus wildtype (ATCC46645); assay: In vitro uptake assay in A. fumigatus; assay type: cell-based, Aspergillus fumigatus; conditions: iron-starvation condition, 45 min, normalized to [^68Ga]TAFC uptake from the same experiment, n = 3
Experimental: For in vitro uptake studies, A. fumigatus wildtype (ATCC46645) was used. Fungal strain was cultured at 37 °C in Aspergillus minimal medium (AMM) containing 1 % (m/v) glucose as carbon source, 20 mM glutamine as nitrogen source, salts, and trace elements. Iron-sufficient media were prepared by adding FeSO4 to a final concentration of 30 μM. For iron-deficient conditions, supplementation of iron was omitted. Iron starvation was verified by the detection of extracellular siderophore production which is suppressed by iron supplementation.
Uptake assays were performed in either iron-deficient or iron-sufficient A. fumigatus wildtype cultures. In a 96-well MultiScreen Filter Plates HTS (1 μm glass fiber filter, Merck Millipore, Darmstadt, Germany), 180 μl of A. fumigatus suspended in iron-replete or iron-depleted medium was added. [^68Ga]siderophores (approx. 1 × 10^5 cpm, 80 nM) were incubated with either PBS pH 7.4 (total series) or blocking solution (10 μM [Fe]TAFC) (non-specific series) at RT for 45 min in quadriplicates. The incubation was interrupted by suction of the medium and the plate was washed twice with ice-cold TRIS-buffered saline (10 mM, pH 7.3). The filters were isolated and the remaining activities were measured in the gamma counter. The uptake was calculated as % uptake of total activity added; each assay was repeated three times. To normalize uptake variations between different fungal cultures, the uptake of each [^68Ga]siderophore was expressed as the ratio to [^68Ga]TAFC uptake from the same experiment. The mean values of three different assays were used to quantitatively compare the difference in uptake between the compounds.

[3] = Distribution coefficient (logD), octanol/PBS pH 7.4; assay type: physicochemical; conditions: [^68Ga]siderophore 4 μM, octanol/PBS pH 7.4, n = 5
Experimental: [^68Ga]siderophore (4 μM) in 500 μl phosphate-buffered saline (PBS), pH 7.4, was added to 500 μl octanol. The mixture was vortexed at 1400 rpm for 15 min and subsequently centrifuged at 2000 rcf for 2 min.

| SMILES | Uptake in A. terreus in iron-replete condition ([1]; iron-replete condition) | Uptake in A. terreus with TAFC blocking ([1]; iron-starvation condition with TAFC blocking) | uptake in A. terreus ([1]; iron-starvation condition, 45 min, n = 3) | uptake ratio to [^68Ga]TAFC [2] | uptake ratio to [^68Ga]TAFC ([2]; listed as [^68Ga]FSC) | uptake ratio to [^68Ga]TAFC ([2]; listed as [^68Ga]TBuFC) | logD [3] |
| --- | --- | --- | --- | --- | --- | --- | --- |
| C/C1=C/C(=O)N(O)CCCC(N)C(=O)OCC/C(C)=C\C(=O)N(O)CCCC(N)C(=O)OCC/C(C)=C\C(=O)N(O)CCCC(N)C(=O)OCC1 (centres unmarked) (68Ga complex, metal not drawn) [FSC, fusarinine C] | 2 % of total activity added | 28 % of total activity added | > 30 % of total activity added | 1.37 | ~1.4 | – | – |
| CCCC(=O)NC1CCCN(O)C(=O)C=C(C)CCOC(=O)C(NC(=O)CCC)CCCN(O)C(=O)C=C(C)CCOC(=O)C(NC(=O)CCC)CCCN(O)C(=O)C=C(C)CCOC1=O (centres unmarked) (68Ga complex, metal not drawn) [TBuFC, tributanoyl(FSC)] | – | – | – | 0.86 | – | around 1 | 0.34 ± 0.01 |
